The results in this text go back to patent US20070299079A1, “4-AMINO-PYRIDO[3,2-e]PYRAZINES, THEIR USE AS INHIBITORS OF PHOSPHODIESTERASE 10, AND PROCESSES FOR PREPARING THEM” (priority 2006, published 2007).

In one series the target is T1, PDE10 from pig striatum (Sus scrofa, UniProt A0A287B941). The series can be described thus: Inhibition of PDE10 from pig striatum. The conditions noted are these: read-out: Km value of the substrate for PDE10 from pig striatum.
Experimental: For the enzymatic testing of PDE10 activity 0.5 g of the isolated and frozen striatum was homogenised in 10 ml 50 mM Tris/Mg-buffer at 4° C. and centrifuged for one hour at 100000 g. The supernatant is called the cytosolic fraction and was removed and stored on ice. The pellet was resuspended in the same buffer, but containing 1% Triton and incubated for 45 min at 4° C. Both fractions were independently applied onto a 5 ml Hi Trap™ QHP column at the Äkta-FPLC. After washing the columns the bound PDE protein was eluted with an increasing sodium chloride gradient (0 mM-500 mM sodium chloride) in 50 mM Tris/Mg-buffer at 4° C. for the cytosolic fraction and in the presence of 1% Triton for the membrane fraction. […] The fractions with PDE10-activity were pooled and frozen in aliquots until use at −20° C.
PDE10 activity was determined in a one step procedure in microtiterplates. […] Nonspecific activity was tested without the enzyme. The reaction was initiated by addition of the substrate solution and was carried out at 37° C. for 30 minutes. Enzymatic activity was stopped by addition of 25 μl YSi—SPA-beads (Amersham-Pharmacia). One hour later the mixture was measured in a liquid scintillation counter for microtiterplates (Microbeta Trilux). To pipette the incubation mixture a robot Biomek (Fa. Beckman) is used. […] For determination of IC50 values the Hill-plot, 2-parameter-model, was used.
`Nc1nc2c(ncn2[C@@H]2O[C@@H]3COP(=O)(O)O[C@H]3[C@H]2O)c(=O)[nH]1` [cGMP]: the Km (as a rule, the concentration of substrate that gives half-maximal velocity) was found to be 2200 nM.

In the next series the target is T2, PDE10 from rat striatum (Rattus norvegicus, UniProt Q9QYJ6).
T2 construct: 0.5 g of the isolated and frozen striatum was homogenised; from tissue; host or cells: striatum of male Wistar rats, anion-exchange FPLC fractions
T2 sequence (Q9QYJ6 1-794): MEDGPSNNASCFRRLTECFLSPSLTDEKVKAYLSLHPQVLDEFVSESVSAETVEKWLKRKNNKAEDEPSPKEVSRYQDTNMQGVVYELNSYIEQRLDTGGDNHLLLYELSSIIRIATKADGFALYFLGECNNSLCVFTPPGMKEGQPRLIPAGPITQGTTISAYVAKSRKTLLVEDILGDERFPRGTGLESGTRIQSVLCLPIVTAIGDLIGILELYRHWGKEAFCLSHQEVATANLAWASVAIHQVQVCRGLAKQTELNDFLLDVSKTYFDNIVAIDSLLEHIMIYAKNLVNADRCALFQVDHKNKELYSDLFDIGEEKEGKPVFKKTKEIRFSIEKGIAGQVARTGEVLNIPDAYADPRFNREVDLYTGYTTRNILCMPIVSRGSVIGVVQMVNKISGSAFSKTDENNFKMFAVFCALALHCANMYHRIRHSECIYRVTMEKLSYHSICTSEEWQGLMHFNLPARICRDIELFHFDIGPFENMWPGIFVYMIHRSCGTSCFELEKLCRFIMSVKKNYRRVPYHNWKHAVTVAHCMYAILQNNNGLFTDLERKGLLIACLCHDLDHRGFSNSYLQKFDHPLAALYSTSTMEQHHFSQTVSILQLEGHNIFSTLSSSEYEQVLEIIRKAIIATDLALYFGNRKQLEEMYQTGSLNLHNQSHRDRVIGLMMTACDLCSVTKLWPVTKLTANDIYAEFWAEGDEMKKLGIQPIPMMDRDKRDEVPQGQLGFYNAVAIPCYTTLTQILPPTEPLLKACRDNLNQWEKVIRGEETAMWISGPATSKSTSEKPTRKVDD
The series is described as follows: Inhibition of PDE10 from rat striatum. The format is biochemical.
Conditions: not given
The method, then:
Phosphodiesterase isoenzyme 10 (PDE10) activity was determined in preparations of rat, pig and guinea pig striatum respectively. Striatum from male Wistar rats (180-200 g), male hybrid pigs (150 kg) and male guinea pigs (CRL (HA), 500 g) respectively were collected and frozen at −70° C.
For the enzymatic testing of PDE10 activity 0.5 g of the isolated and frozen striatum was homogenised in 10 ml 50 mM Tris/Mg-buffer at 4° C. and centrifuged for one hour at 100000 g.
Nonspecific activity was tested without the enzyme. […] For determination of IC50 values the Hill-plot, 2-parameter-model, was used.
Take `COc1ccc(Cc2nccc3cc(OC)c(OC)cc23)cc1OC` [Papaverine, reference compound]: the IC50 (as a rule, the concentration that gives 50% inhibition) amounted to 142 nM.

The series is the same for the next values; noted with them: rat striatum preparation, 0.1 μM [3H]-cAMP, 37° C., 30 minutes; read-out: Inhibition of PDE10 from rat IC50.
On to `COc1ccc2nc(Cl)c3cnc(C(C)C)n3c2n1` [Intermediate A14], for which the IC50 is 237 nM.

The series is the same for the next values; noted with them: substrate Km, rat striatum.
For `Nc1nc2c(ncn2[C@@H]2O[C@@H]3COP(=O)(O)O[C@H]3[C@H]2O)c(=O)[nH]1` [cGMP], the Km was 1800 nM.

Test system in the next series: not given
Assay: not given
Conditions: not given
With `CON1C=C2C=Nc3c(ncc(-c4ccccc4)c3N)N2C1` [Example 15, 4-amino-8-methoxy-3-phenyl-imidazo[1,5-a]pyrido[3,2-e]pyrazine], the melting point (as a rule, the temperature of the solid-liquid transition) was in the range of 252 to 253 °C.

`CON1C=C2C=NC3=C(N(CCC(F)(F)F)CC(C)=C3N)N2C1` [Example 8, 4-amino-8-methoxy-3-methyl-1-(3,3,3-trifluoropropyl)-imidazo[1,5-a]pyrido[3,2-e]pyrazine] had a melting point of 273 to 276 °C.

Compound `CCCN1CC(C)=C(N(C)C)C2=C1N1CN(OC)C=C1C=N2` [Example 19, 4-(N,N-dimethyl-amino)-8-methoxy-3-methyl-1-propyl-imidazo[1,5-a]pyrido[3,2-e]pyrazine] gave a melting point of 93 to 95 °C.

As to `CCN1CC(C)=C(N2CCN(c3ccccc3)CC2)C2=C1N1CN(OC)C=C1C=N2`, the melting point was 224 to 227 °C.

Compound `CCCN1CC(C)=C(NC)C2=C1N1CN(OC)C=C1C=N2` [Example 16, 4-(N-methyl-amino)-8-methoxy-3-methyl-1-propyl-imidazo[1,5-a]pyrido[3,2-e]pyrazine] had a melting point of 111 to 113 °C.

With `CCCN1CC(C)=C(NCC)C2=C1N1CN(OC)C=C1C=N2` [Example 17, 4-(N-ethyl-amino)-8-methoxy-3-methyl-1-propyl-imidazo[1,5-a]pyrido[3,2-e]pyrazine], the melting point lay in the range of 140 to 142 °C.

`CCN1CC(C)=C(N2CCOCC2)C2=C1N1CN(OC)C=C1C=N2` [Example 24, 1-ethyl-8-methoxy-3-methyl-4-morpholino-imidazo[1,5-a]pyrido[3,2-e]pyrazine]: the melting point lay in the range of 132 to 133 °C.

In turn, `CCN1CC(C)=C(NCc2ccccc2)C2=C1N1CN(OC)C=C1C=N2` [Example 21, 4-(N-benzyl-amino)-1-ethyl-8-methoxy-3-methyl-imidazo[1,5-a]pyrido[3,2-e]pyrazine] displayed a melting point of 127 to 128 °C.

For `CCCN1CC(C)=C(NC2CCCC2)C2=C1N1CN(OC)C=C1C=N2` [Example 23, 4-(N-cyclopentyl-amino)-8-methoxy-3-methyl-1-propyl-imidazo[1,5-a]pyrido[3,2-e]pyrazine], the melting point was in the range of 77 to 80 °C.

`CCN1CC(C)=C(NC2CCCC2)C2=C1N1CN(OC)C=C1C=N2` [Example 22, 4-(N-cyclopentyl-amino)-1-ethyl-8-methoxy-3-methyl-imidazo[1,5-a]pyrido[3,2-e]pyrazine]: the melting point was in the range of 93 to 95 °C.

Take `CCCN1CC(C)=C(NC(C)=O)C2=C1N1CN(OC)C=C1C=N2` [Example 38, 4-(N-acetyl-amino)-8-methoxy-3-methyl-1-propyl-imidazo[1,5-a]pyrido[3,2-e]pyrazine]: the melting point fell in the range of 210 to 213 °C.

`CCCN1CC(C)=C(n2ccnn2)C2=C1N1CN(OC)C=C1C=N2` [Example 32, 8-methoxy-3-methyl-1-propyl-4-(1,2,3-triazol-1-yl)-imidazo[1,5-a]pyrido[3,2-e]pyrazine]: the melting point is 218 to 220 °C.

`CCCCNC1=C(C)CN(CC)C2=C1N=CC1=CN(OC)CN12` [Example 20, 4-(N-butyl-amino)-1-ethyl-8-methoxy-3-methyl-imidazo[1,5-a]pyrido[3,2-e]pyrazine] displayed a melting point of 62 to 65 °C.

With `CCCN1CC(C)=C(N(C(C)=O)C(C)=O)C2=C1N1CN(OC)C=C1C=N2` [Example 39, 4-(N,N-diacetyl-amino)-8-methoxy-3-methyl-1-propyl-imidazo[1,5-a]pyrido[3,2-e]pyrazine], the melting point is 135 to 138 °C.

For the compound `CCN1CC(C)=C(N(C(C)=O)C(C)=O)C2=C1N1CN(OC)C=C1C=N2` [Example 41, 4-(N,N-diacetyl-amino)-1-ethyl-8-methoxy-3-methyl-imidazo[1,5-a]pyrido[3,2-e]pyrazine], the melting point is 135 to 136 °C.

In the next series the test system is MK-801-induced hyperactivity and stereotyped sniffing. The series can be described thus: MK-801-induced hyperactivity and stereotyped sniffing, animal model of psychosis. The conditions noted are these: female Wistar rats, p.o. 30 min prior to test, MK-801 0.1 mg/kg i.p., activity recorded 1 h. The format is in vivo, rat. As to the method:
Female Wistar rats (Crl: (WI) BR, Charles River, Sulzfeld, Germany) weighing 150 to 180 g were used for the MK-801-induced psychosis. Animals were housed under standard conditions in groups of five on a 12 h light/dark cycle (light on at 0600 h) with ad libitum access to food (Pellets, ssniff M/R 15, Spezialdiät GmbH, Soest/Westfalen) and water.
MK-801 (dizocilpine, MW 337.37) was obtained by Tocris, distributed by Biotrend Chemikalien GmbH, Köln, Germany.
Hydroxyethylcellulose was solved in distilled water.
MK-801 was dissolved in saline so that an administration volume of 0.5 ml/100 g was reached. The suspensions and solution were placed on a magnetic stirrer before and during dosing procedures.
The behaviour induced by the NMDA antagonist MK-801 is generally accepted as a rat model of psychosis. MK-801 induces stereotyped sniffing and hyperactivity in rats after intraperitoneal administration.
Locomotor activity of the rats was recorded by the MotiTest Apparatus (TSE, Bad Homburg, Germany). The test area consisted of a squared arena (45×45 cm) with protective plexiglass walls (20 cm of height) where rats could freely move. Horizontal movements were recorded by 32 infrared photocells arranged along the bottom of each wall of the arena. Activity [sec] was measured by the computer program “ActiMot” (TSE, Bad Homburg, Germany).
Stereotyped sniffing was scored by the experimenter every five minutes for one hour (12 intervals) according to the method described by Andiné et al. (1999). The scores of the 12 intervals were summed up at the end of the experiment.
The day of experiment the female rats were placed in the laboratory and received the test compound or vehicle at the appropriate time prior to test. MK-801 0.1 mg/kg was intraperitoneally administered 10 minutes prior to test.
At the beginning of the test the rats were placed in the centre of the squared arena of the MotiTest apparatus. Behaviour of the rats was recorded for one hour. After each run animals were removed and the boxes thoroughly cleaned and dried.
Results were analysed by one way analysis of variance (ANOVA). Tukey test was used for individual comparison. P<0.05 was regarded as significant.
MK-801 at 0.1 mg/kg i.p. was administered 10 min before testing. […] Activity and stereotyped sniffing was recorded for 1 h. Co=control without MK-801 stimulation, Cs=control with MK-801 stimulation. Significant to MK-801 stimulated control (=Cs): * p<0.05, *** p<0.001.
Turning to “4-amino-8-methoxy-3-methyl-1-propyl-imidazo[1,5-a]pyrido[3,2-e]pyrazine [Example 1]”, the “Dose from which MK-801-induced hyperactivity is significantly reversed” value is reported as not below 10 mg/kg.

As for “4-amino-1-(2-chloro-phenyl)-8-methoxy-3-methyl-imidazo[1,5-a]pyrido[3,2-e]pyrazine [Example 11]”, the “Dose from which MK-801-induced hyperactivity is significantly reversed” value was not below 0.5 mg/kg.

Still in this series, the particulars now being: female Wistar rats, p.o. 30 min prior to test, MK-801 0.1 mg/kg i.p., sniffing scored 1 h.
As to “4-amino-8-methoxy-3-methyl-1-propyl-imidazo[1,5-a]pyrido[3,2-e]pyrazine [Example 1]”, the “Dose from which MK-801-induced stereotyped sniffing is significantly reversed” value was not below 10 mg/kg.

Take “4-amino-1-(2-chloro-phenyl)-8-methoxy-3-methyl-imidazo[1,5-a]pyrido[3,2-e]pyrazine [Example 11]”: the “Dose from which MK-801-induced stereotyped sniffing is significantly reversed” value is reported as not below 0.5 mg/kg.

Another series addresses T1, PDE10 from pig striatum.
Assay: not given
Conditions: not given
Consider “8-methoxy-3-methyl-4-piperidino-1-propyl-imidazo[1,5-a]pyrido[3,2-e]pyrazine [Example 27]”, for which the IC50 was 302 nM.

The compound “8-methoxy-3-methyl-1-propyl-4-(1,2,4-triazol-1-yl)-imidazo[1,5-a]pyrido[3,2-e]pyrazine [Example 33]” gave an IC50 of 25 nM.

“8-methoxy-3-methyl-1-propyl-4-pyrrolidino-imidazo[1,5-a]pyrido[3,2-e]pyrazine [Example 26]” gave an IC50 of 137 nM.

As for “8-methoxy-3-methyl-1-propyl-4-(pyrazol-1-yl)-imidazo[1,5-a]pyrido[3,2-e]pyrazine hydro chloride [Example 30]”, the IC50 amounted to 155 nM.

Compound “8-methoxy-3-methyl-4-(2-methyl-imidazol-1-yl)-1-propyl-imidazo[1,5-a]pyrido[3,2-e]pyrazine [Example 34]” yielded an IC50 of 395 nM.
